Source: patent publication US10118902B2 (Sanford Burnham Prebys Medical Discovery Institute, priority 2014, dated 2018)

Target: neurotensin receptor 1 (NTR1) (Homo sapiens (Human), UniProt P30989)
Assay: NTR1 dose response, high-content imaging beta-arrestin-GFP assay in NTR1-U2OS cells
Format: cell-based
Settings: read-out: EC50

Chain of neurotensin receptor 1 (NTR1) (P30989 whole entry, species assumed): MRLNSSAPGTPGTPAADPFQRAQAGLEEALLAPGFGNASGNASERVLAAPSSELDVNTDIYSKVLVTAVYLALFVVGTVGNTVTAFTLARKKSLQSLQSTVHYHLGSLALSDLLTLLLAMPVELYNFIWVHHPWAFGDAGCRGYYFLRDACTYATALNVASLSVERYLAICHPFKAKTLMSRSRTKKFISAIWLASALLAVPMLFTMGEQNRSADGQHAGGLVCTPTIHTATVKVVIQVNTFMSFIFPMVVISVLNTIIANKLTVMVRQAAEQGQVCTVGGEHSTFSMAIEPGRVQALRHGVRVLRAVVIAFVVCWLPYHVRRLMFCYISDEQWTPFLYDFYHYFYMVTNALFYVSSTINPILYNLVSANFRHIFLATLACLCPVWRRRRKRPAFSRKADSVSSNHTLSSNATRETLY

EC50 [nM] | Compound
500 to 2000 | COc1nccnc1C1CCN(c2nc(C3(F)CC3)nc3c(F)cc(N(C)CCO)cc23)CC1 [Example 213, 2-({8-Fluoro-2-(1-fluoro-cyclopropyl)-4-[4-(3-methoxy-pyrazin-2-yl)-piperidin-1-yl]-quinazolin-6-yl}-methyl-amino)-ethanol]
> 10000 | CCCN(C)c1ccc2nc(C3CC3)nc(N3CCC(c4ccccc4OC)CC3=O)c2c1 (stereo not shown) [Example 102, 1-[2-cyclopropyl-6-(methyl-propyl-amino)-quinazolin-4-yl]-4-(2-methoxy-phenyl)-piperidin-2-one]
2000 to 10000 | CN(C)c1ccccc1C1CCN(c2nc(C3CC3)nc3cc(Cl)c(N(C)CCO)cc23)CC1 [Example 118, 2-({7-chloro-2-cyclopropyl-4-[4-(2-dimethylamino-phenyl)-piperidin-1-yl]-quinazolin-6-yl}-methyl-amino)-ethanol]
2000 to 10000 | COc1ccccc1C1CCN(c2nc(C3(F)CC3)nc3c(Cl)cc(N4CC[C@H](O)C4)cc23)CC1 (stereo in doubt) [Example 203, 1-{8-Chloro-2-(1-fluoro-cyclopropyl)-4-[4-(2-methoxy-phenyl)-piperidin-1-yl]-quinazolin-6-yl}-pyrrolidin-3-ol]
500 to 2000 | COc1cccnc1C1CCN(c2nc(C3(F)CC3)nc3ccc(N(C)CCO)cc23)CC1 [Example 206, 2-{[2-(1-Fluoro-cyclopropyl)-4-(3-methoxy-3′,4′,5′,6′-tetrahydro-2′H-[2,4′]bipyridinyl-1′-yl)-quinazolin-6-yl]-methyl-amino}-ethanol]
2000 to 10000 | CCCN(C)c1cc2c(N3CCC(c4ccccc4OC)CC3)nc(C3CC3)nc2cc1F [Example 105, {2-cyclopropyl-7-fluoro-4-[4-(2-methoxy-phenyl)-piperidin-1-yl]-quinazolin-6-yl}-methyl-propyl-amine]
> 10000 | COc1cnccc1C1CCN(c2nc(C3(F)CC3)nc3ccc(N(C)CCO)cc23)CC1 [Example 212, 2-{[2-(1-Fluoro-cyclopropyl)-4-(3′-methoxy-3,4,5,6-tetrahydro-2H-[4,4′]bipyridinyl-1-yl)-quinazolin-6-yl]-methyl-amino}-ethanol]
< 500 | COc1ccccc1C1CCN(c2nc(C3CC3)nc3ccc(N(C)CCO)c(Cl)c23)CC1 [Example 103, 2-({5-chloro-2-cyclopropyl-4-[4-(2-methoxy-phenyl)-piperidin-1-yl]-quinazolin-6-yl}-methyl-amino)-ethanol]
500 to 2000 | CCCN(C)c1cc2c(N3CCC(c4ccccc4OC)CC3)nc(C3CC3)nc2cc1C [Example 122, {2-cyclopropyl-4-[4-(2-methoxy-phenyl)-piperidin-1-yl]-7-methyl-quinazolin-6-yl}-methyl-propyl-amine]
> 10000 | CN(C)CCN(C)c1ccc2nc(C3(C)CC3)nc(N3CCC(c4ccccc4N4CCC4)CC3)c2c1 [Example 35, N-[4-[4-(2-azetidin-1-yl-phenyl)-piperidin-1-yl]-2-(1-methyl-cyclopropyl)-quinazolin-6-yl]-N,N′,N′-trimethyl-ethane-1,2-diamine]
500 to 2000 | COc1ccccc1C1CCN(c2nc(N(C)C)nc3ccc(N(C)CCO)cc23)CC1 [Example 94]
> 10000 | COCCN(C)c1ccc2nc(C3(C)CC3)nc(N3CCC(c4ccccc4N4CCC4)CC3)c2c1 [Example 31, [4-[4-(2-azetidin-1-yl-phenyl)-piperidin-1-yl]-2-(1-methyl-cyclopropyl)-quinazolin-6-yl]-(2-methoxy-ethyl)-methyl-amine]
> 10000 | COc1ccccc1C1CCN(c2nc(C3CC3)nc(C)c2CC(=O)N(C)C)CC1 [Example 157, 2-{2-cyclopropyl-4-[4-(2-methoxy-phenyl)-piperidin-1-yl]-6-methyl-pyrimidin-5-yl}-N,N-dimethyl-acetamide]
500 to 2000 | COc1ncccc1C1CCN(c2nc(C3(F)CC3)nc3c(F)cc(N(C)CCO)cc23)CC1 [Example 214, 2-{[8-Fluoro-2-(1-fluoro-cyclopropyl)-4-(2-methoxy-3′,4′,5′,6′-tetrahydro-2′H-[3,4′]bipyridinyl-1′-yl)-quinazolin-6-yl]-methyl-amino}-ethanol]
> 10000 | COC1CCCCC1C1CCN(c2nc(C3(F)CC3)nc3ccc(N(C)CCO)cc23)CC1 (stereo not shown) [Example 189, 2-({2-(1-Fluoro-cyclopropyl)-4-[4-(2-methoxy-cyclohexyl)-piperidin-1-yl]-quinazolin-6-yl}-methyl-amino)-ethanol]
2000 to 10000 | COc1ccc(F)cc1C1CCN(c2nc(C3CC3)nc3cc(Cl)c(N(C)CCO)cc23)CC1 [Example 113, 2-({7-chloro-2-cyclopropyl-4-[4-(5-fluoro-2-methoxy-phenyl)-piperidin-1-yl]-quinazolin-6-yl}-methyl-amino)-ethanol]
500 to 2000 | CN(C)c1ccc2nc(C3CC3)nc(N3CCN(c4ccccc4N4CCC4)CC3)c2c1 [Example 1, {4-[4-(2-azetidin-1-yl-phenyl)-piperazin-1-yl]-2-cyclopropyl-quinazolin-6-yl}-dimethyl-amine]
2000 to 10000 | COc1ccccc1N1CC2(C1)CN(c1nc(C3CC3)nc3ccc(N(C)CCO)cc13)C2 [Example 99, 2-({2-cyclopropyl-4-[6-(2-methoxy-phenyl)-2,6-diaza-spiro [3.3]hept-2-yl]-quinazolin-6-yl}-methyl-amino)-ethanol]
> 10000 | CCCN(C)Cc1ccc2nc(C3CC3)nc(N3CCC(c4ccccc4OC)CC3)c2c1 [Example 85, {2-cyclopropyl-4-[4-(2-methoxy-phenyl)-piperidin-1-yl]-quinazolin-6-ylmethyl}-methyl-propyl-amine]
